What all share (type): in vivo
Experiment [1] deals with barnyardgrass (Echinochloa crus-galli). The experiment is described as follows: Test A pre-/postemergence: barnyardgrass. In short, it runs like this:
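Injury was scored visually on a 0 (no effect) to 100 (complete control) scale versus untreated controls roughly ten days after treatment in the greenhouse. Compounds, formulated in surfactant-containing non-phytotoxic solvent, went on as soil-directed preemergence spray or postemergence to one- to two-leaf plants 2–10 cm tall.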

For experiment [2], the system named is rice (Oryza sativa). Briefly: Test B flooded paddy: rice. The following applies: Flood; 250 g ai/ha; applied to paddy water at 2-leaf stage; visually evaluated after 13 to 15 days. In short, it runs like this:
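2-leaf plants; pots flooded 3 cm over soil; compound added to paddy water, depth kept constant. Greenhouse 13–15 d. Visual rating vs controls, 0–100 scale (100 = complete control); dash = no result.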

The test system of experiment [3] is kochia (Kochia scoparia). The experiment is described as follows: Test C pre-/postemergence: kochia. The method, boiled down:
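Visual injury scored 0–100 (100 = complete control) against untreated controls after 13–15 greenhouse days. Surfactant-containing solvent formulations applied either to soil after sowing (loam/sand) or over 1- to 4-leaf plants, 2–18 cm tall.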

For experiment [4], the system named is foxtail, green (green foxtail, Setaria viridis). Briefly: Test D pre-/postemergence: foxtail, green. In short, it runs like this:
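Applied as a non-phytotoxic solvent formulation with surfactant, compounds were tested preemergence in silt loam and postemergence on seedlings 2 to 18 cm high in peat-vermiculite medium. Evaluation was visual, 0 meaning no effect and 100 complete control, at 14 to 21 days.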

The mark [5] stands for this setting: Postemergence, 125 g ai/ha, 0 to 100 scale, 0 is no effect, 100 is complete control.
[6] abbreviates: Postemergence, 500 g ai/ha, visual rating on 0 to 100 scale (0 no effect, 100 complete control), approximately ten days.
Setting [7] is: Preemergence, 125 g ai/ha, 0 to 100 scale where 0 is no effect and 100 is complete control.
Where [8] appears, read: Preemergence, 500 g ai/ha, 0 to 100 scale (0 no effect, 100 complete control).
Setting [9] is: Postemergence, 31 g ai/ha, scale 0 to 100 (0 no effect, 100 complete control).
Where [10] appears, read: Postemergence, 62 g ai/ha, scale 0 to 100 (0 no effect, 100 complete control).
The mark [11] stands for this setting: Postemergence, 125 g ai/ha, scale 0 to 100, 0 no effect, 100 complete control.
Setting [12] is: Postemergence, 250 g ai/ha, scale 0 to 100.
[13] abbreviates: Postemergence, 250 g ai/ha, scale 0 to 100 (0 no effect, 100 complete control).
Where [14] appears, read: Postemergence, 16 g ai/ha, scale 0 to 100.
[15] abbreviates: Preemergence, 31 g ai/ha, scale of 0 to 100, 0 is no effect, 100 is complete control.
Where [16] appears, read: Preemergence, 62 g ai/ha, scale of 0 to 100, 0 is no effect, 100 is complete control.
The mark [17] stands for this setting: Preemergence, 125 g ai/ha, scale 0 to 100, 0 no effect, 100 complete control.
Setting [18] is: Preemergence, 250 g ai/ha, scale 0 to 100, 0 no effect, 100 complete control.
The mark [19] stands for this setting: Preemergence, 16 g ai/ha, scale 0 to 100 (0 no effect, 100 complete control).
The mark [20] stands for this setting: Preemergence, 31 g ai/ha, scale 0 to 100 (0 no effect, 100 complete control).
Where [21] appears, read: Preemergence, 62 g ai/ha, scale 0 to 100.
The mark [22] stands for this setting: Preemergence, 125 g ai/ha, scale 0 to 100.
The mark [23] stands for this setting: Postemergence, 500 g ai/ha, 0 to 100 scale, 0 is no effect, 100 is complete control.

As for `Cc1nn(-c2ccnc(C(F)(F)F)c2)nc1Cc1ccnc(C(F)(F)F)c1` [Compound 137], the “Barnyardgrass plant response rating” value came out at 70 in experiment [1] (setting [5]) and 90 in experiment [1] (setting [6]). In addition, the entries for the “Plant response rating, Barnyardgrass” value in experiment [1] (setting [7]) and in experiment [1] (setting [8]) were 50 and 70, respectively. In addition, in experiment [2], the “Plant response rating, Rice (0 to 100 scale, 0 is no effect, 100 is complete control)” value is given as 40. Also, the “Plant response rating, Kochia” value in experiment [3] (setting [9]), in experiment [3] (setting [10]), in experiment [3] (setting [11]) and in experiment [3] (setting [12]) was 90 each time. The “Plant response rating: Foxtail, Green” value in experiment [4] (setting [9]) was 50; in experiment [4] (setting [10]), 70; in experiment [4] (setting [11]), 80; in experiment [4] (setting [13]), 95. Besides, the “Plant response rating, Foxtail, Green” value in experiment [4] (setting [14]) turned out to be 40.

`Cc1nn(-c2ccc(F)c(F)c2)nc1Oc1ccnc(C(F)(F)F)c1` [Compound 145]: the entries for the “Barnyardgrass plant response rating” value in experiment [1] (setting [5]) and in experiment [1] (setting [6]) were 80 and 90, respectively. For the same compound, the “Plant response rating, Barnyardgrass” value in experiment [1] (setting [7]) and in experiment [1] (setting [8]) was 100 in each case. The “Plant response rating, Rice (0 to 100 scale, 0 is no effect, 100 is complete control)” value in experiment [2] amounted to 80. Further, the “Plant response rating, Kochia” value came out at 85 in experiment [3] (setting [9]); 85 in experiment [3] (setting [10]); 90 in experiment [3] (setting [11]); 95 in experiment [3] (setting [12]); 50 in experiment [3] (setting [15]); 90 in experiment [3] (setting [16]). In addition, the “Plant response rating, Kochia” value in experiment [3] (setting [17]) and in experiment [3] (setting [18]) was 98 in each case. The results for the “Plant response rating: Foxtail, Green” value in experiment [4] (setting [9]), in experiment [4] (setting [10]) and in experiment [4] (setting [11]) were 60, 100 and 100, respectively. For the same compound, the “Plant response rating, Foxtail, Green” value in experiment [4] (Postemergence, 8 g ai/ha, scale 0 to 100) is given as 5; in experiment [4] (setting [14]) it was 5.

Regarding `Cc1nn(-c2ccc(F)c(C(F)(F)F)c2)nc1Oc1ccnc(C(F)(F)F)c1` [Compound 147], the “Barnyardgrass plant response rating” value in experiment [1] (setting [5]) and in experiment [1] (setting [6]) was 80 each time. In addition, the “Plant response rating, Barnyardgrass” value in experiment [1] (setting [7]) was 90; in experiment [1] (setting [8]), 100. Further, the “Plant response rating, Rice (0 to 100 scale, 0 is no effect, 100 is complete control)” value in experiment [2] amounted to 50. In addition, the “Plant response rating, Kochia” value is listed as 35 in experiment [3] (setting [15]), 40 in experiment [3] (setting [16]), 80 in experiment [3] (setting [17]) and 85 in experiment [3] (setting [18]). The “Plant response rating: Foxtail, Green” value is given as 15 in experiment [4] (setting [9]), 25 in experiment [4] (setting [10]) and 60 in experiment [4] (setting [11]). For the same compound, the “Plant response rating, Foxtail, Green” value is recorded as 15 in experiment [4] (setting [14]); 10 in experiment [4] (setting [19]); 25 in experiment [4] (setting [20]); 75 in experiment [4] (setting [21]); 100 in experiment [4] (setting [22]).

Consider `CCCc1nn(-c2ccc(C(F)(F)F)c(F)c2)nc1Oc1ccnc(C(F)(F)F)c1` [Compound 185], for which the figures for the “Plant response rating, Barnyardgrass” value in experiment [1] (setting [5]), in experiment [1] (setting [7]) and in experiment [1] (setting [8]) were 70, 100 and 100, respectively. The “Barnyardgrass plant response rating” value in experiment [1] (setting [23]) came to 90. For the same compound, the “Plant response rating, Rice (0 to 100 scale, 0 is no effect, 100 is complete control)” value in experiment [2] is listed as 65. The “Plant response rating, Kochia” value in experiment [3] (setting [9]), in experiment [3] (setting [10]), in experiment [3] (setting [11]) and in experiment [3] (setting [13]) was 90 each time.

Consider `CCOc1nn(-c2ccc(F)cc2)nc1Cc1ccnc(C(F)F)c1` [Compound 195], for which the “Plant response rating, Barnyardgrass” value in experiment [1] (setting [5]) was found to be 90; in experiment [1] (setting [7]), 90; in experiment [1] (setting [8]) it was 100. The “Barnyardgrass plant response rating” value in experiment [1] (setting [23]) was 90. Further, in experiment [2], the “Plant response rating, Rice (0 to 100 scale, 0 is no effect, 100 is complete control)” value is on record as 60. The “Plant response rating, Kochia” value in experiment [3] (setting [9]) came out at 75; in experiment [3] (setting [10]) it was 85; in experiment [3] (setting [11]), 90; in experiment [3] (setting [13]), 95; in experiment [3] (Preemergence, 31 g ai/ha, scale 0 (no effect) to 100 (complete control)) it was 60; in experiment [3] (setting [16]) it was 75. Further, in experiment [3] (setting [18]), the “Plant response rating, Kochia” value turned out to be 95. Besides, the “Plant response rating: Foxtail, Green” value stood at 50 in experiment [4] (setting [9]), 75 in experiment [4] (setting [10]), 100 in experiment [4] (setting [11]) and 100 in experiment [4] (setting [13]). Moreover, the “Plant response rating, Foxtail, Green” value in experiment [4] (setting [14]) is on record as 30; in experiment [4] (setting [19]), 15; in experiment [4] (setting [20]), 90; in experiment [4] (setting [21]) it was 100; in experiment [4] (setting [22]), 100; in experiment [4] (Preemergence, 250 g ai/ha, scale 0 to 100) it was 100.

Values taken from patent publication US9302999B2, “Substituted triazoles as herbicides” (E. I. DU PONT DE NEMOURS AND COMPANY, priority 2012, dated 2016).
